Key:
[1] = Partition of model by-product compounds between Carrier liquid 2 (poly-alpha-olefin) and organic solvent; type: physicochemical; settings: log {[compound]carrier liquid/[compound]organic solvent}, 2 mL solvent + 3 mL carrier liquid solution, shaken 60 min at room temperature
Method: (§1) Six compounds were dissolved in two different carrier liquids. The six compounds were exemplary for the by-products that may be obtained when wood is subjected to hydrolysis by the reaction of concentrated hydrochloric acid and that may be obtained when the hydrolyzate thus obtained in treated with the carrier liquid. The compounds were • a) betulin, a triterpene having a pentacyclic structure and two hydroxyl groups, • b) abietic acid, i.e. a diterpene compound derived from four isoprene units and a having one carboxylic acid group, • c) linoleic acid, a fatty aid having 18 carbon atoms and two unsaturated bonds, • d) 1-eicosanol, a linear alkanol having 20 carbon atoms, • e) sitosterol, a phytosterol with a chemical structure similar to cholesterol, and • f) limonene, a cyclic terpene having two unsaturated bonds.
Carrier liquid 2 is a poly-alpha-olefin having a kinematic viscosity of 1240 mm^2/s at 40° C. and a kinematic viscosity of 100 mm^2/s at 100° C. (ASTM D445). It has a flash point of 283° C. (ASTM D92). Carrier liquid 2 is immiscible with water.
(§2) In each experiment, 2 mL of an organic solvent was added to 3 mL of the carrier liquid solutions. The admixture obtained were shaken for 60 min at room temperature. The concentration of each compound in each of the carrier liquids was determined and the partition coefficient was calculated. By partition coefficient P is understood the ratio of concentrations of each of the compounds in an organic solvent and in a carrier liquid. The partition coefficient is expressed as
(§3) log P, being log {[compound]carrier liquid/[compound]organic solvent}.
(§4) The partition coefficients are shown in Table 2 for Carrier liquid 1 and in Table 3 for Carrier liquid 2.

[2] = Partition of model by-product compounds between Carrier liquid 1 (paraffin oil) and organic solvent; type: physicochemical; settings: log {[compound]carrier liquid/[compound]organic solvent}, 2 mL solvent + 3 mL carrier liquid solution, shaken 60 min at room temperature
Method: as §1
Carrier liquid 1 is a paraffin oil with a boiling range of 388 to 709° C. and a kinematic viscosity of 481 mm^2/s at 40° C. and a kinematic viscosity of about 31 at 100° C. (ASTM D445). Carrier liquid 1 is immiscible with water.
as §2, §3, §4

SMILES	Partition coefficient with Carrier liquid 2, Log P ([1]; Exp. No. 4, solvent methanol)	Partition coefficient with Carrier liquid 2, Log P ([1]; Exp. No. 5, solvent butanol)	Partition coefficient with Carrier liquid 2, Log P ([1]; Exp. No. 6, solvent acetone)	Partition coefficient with Carrier liquid 1, Log P ([2]; Exp. No. 1, solvent methanol)	Partition coefficient with Carrier liquid 1, Log P ([2]; Exp. No. 2, solvent butanol)	Partition coefficient with Carrier liquid 1, Log P ([2]; Exp. No. 3, solvent acetone)
CC[C@H](CC[C@@H](C)[C@H]1CC[C@H]2[C@@H]3CC=C4C[C@@H](O)CC[C@]4(C)[C@H]3CC[C@]12C)C(C)C [sitosterol]	−0.05	−0.63	−0.10	0.35	−0.45	0.16
C=C(C)[C@@H]1CC[C@]2(CO)CC[C@]3(C)[C@H](CC[C@@H]4[C@@]5(C)CC[C@H](O)C(C)(C)[C@@H]5CC[C@]43C)[C@@H]12 [betulin]	−0.36	−1.09	−1.03	–	–	–
